# Test results from US8119626B2, “Oxime derivative and preparations thereof” (Mitsubishi Tanabe Pharma Corporation, priority 2005, dated 2012).
# pEC50: −log10 of the molar value.
# Biological target: T1, human-liver type GST-GK (Homo sapiens, UniProt P35557)
# T1 construct: made in house; host or cells: E. coli
# T1 sequence (P35557 1-466 isoform P35557-2): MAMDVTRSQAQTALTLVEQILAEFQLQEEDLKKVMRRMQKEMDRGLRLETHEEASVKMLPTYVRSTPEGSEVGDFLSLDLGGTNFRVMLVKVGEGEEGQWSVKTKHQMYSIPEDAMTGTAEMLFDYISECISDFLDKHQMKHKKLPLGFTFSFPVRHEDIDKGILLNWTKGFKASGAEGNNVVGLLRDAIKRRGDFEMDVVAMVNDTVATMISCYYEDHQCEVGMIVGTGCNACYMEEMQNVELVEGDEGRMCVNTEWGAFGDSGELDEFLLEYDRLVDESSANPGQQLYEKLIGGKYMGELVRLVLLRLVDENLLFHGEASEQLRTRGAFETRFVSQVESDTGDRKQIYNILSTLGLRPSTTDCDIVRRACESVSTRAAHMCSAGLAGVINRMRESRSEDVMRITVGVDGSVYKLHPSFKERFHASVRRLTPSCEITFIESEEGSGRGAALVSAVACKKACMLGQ
# Experiment: Glucokinase activation effect (G6PDH-coupled NADPH assay)
# Format: biochemical
# Conditions: 5 mM glucose, 5 mM ATP, 30° C., absorbance 340 nm for 15 minutes, 5% DMSO
# Method: A glucokinase activity was examined by measuring the amount of NADPH obtained in generating 6-phosphogluconic acid from glucose-6-phosphoric acid by a coupling enzyme glucose-6-phosphate dehydrogenase not by measuring directly the produced glucose-6-phosphoric acid. The glucokinase enzyme used in the examination is human-liver type GST-GK expressed in E. Coli. The measurement of GK activity was carried out by the following procedures.
# Twenty five mM HEPES buffer (pH7.4) containing 25 mM MgCl2, […], 1 mM DTT, 5 mM NADP (Roche), 16.64 μg/mL G6PDH (Roche 737-232 grade II from yeast) and 2.8 μg/mL GST-GK was prepared as a reaction solution. An evaluating compound dissolved in DMSO was added to the reaction solution to give final concentration of 0.001 to 100 μM (5% DMSO). Thereto was added glucose (final concentration of 5 mM) as a substrate and was added ATP (final concentration of 5 mM), and the reaction was started. The reaction temperature is 30° C. and a generation of NADPH was monitored by changes of absorbance of 340 nm. An increasing in absorbance for 15 minutes from starting reaction was measured and the blank-corrected value was used as GK activity (mOD/min). EC50 level was calculated by a GK activity level in at each concentration of an evaluating compound.
row,pEC50,Structure (SMILES)
1,5.92,O=C1CN(Cc2cnc(NC(=O)/C(=N/O[C@@H]3CCOC3)c3ccc(S(=O)(=O)C4CC4)cc3)s2)CCN1 [Example 6]
2,6.26,CC(=O)N1CCN(Cc2cnc(NC(=O)/C(=N/O[C@@H]3CCOC3)c3ccc(S(=O)(=O)C4CC4)cc3)s2)C[C@@H]1C [Example 9]
3,6.10,CC(=O)N1CCN(Cc2cnc(NC(=O)/C(=N/O[C@@H]3CCOC3)c3ccc(S(=O)(=O)C4CC4)cc3)s2)CC1 [Example 10]
4,6.06,COCC(=O)N1[C@H](C)CN(Cc2cnc(NC(=O)/C(=N/O[C@@H]3CCOC3)c3ccc(S(=O)(=O)C4CC4)cc3)s2)C[C@@H]1C [Example 11]
5,6.77,CN(C)CCOc1ccc2nc(NC(=O)/C(=N/O[C@@H]3CCOC3)c3ccc(S(=O)(=O)C4CC4)cc3)sc2n1 [Example 13-3]
6,6.03,O=C(Nc1ncc(CN2CCOCC2)s1)/C(=N/O[C@@H]1CCOC1)c1ccc(S(=O)(=O)C2CC2)cc1 [Example 18-2]
7,7.08,COc1ccc2nc(NC(=O)/C(=N/O[C@@H]3CCOC3)c3ccc(S(=O)(=O)C4CC4)cc3)sc2n1 [Example 24-25]
8,7.00,O=C(O)CCSc1cnc(NC(=O)/C(=N/O[C@@H]2CCOC2)c2ccc(S(=O)(=O)C3CC3)cc2)s1 [Example 46-1]
9,6.49,CC(=O)N1CCC(OCc2cnc(NC(=O)/C(=N/O[C@@H]3CCOC3)c3ccc(S(=O)(=O)C4CC4)cc3)s2)CC1 [Example 56]
10,6.39,O=C(Nc1ncc(F)s1)/C(=N/OCc1ncccn1)c1ccc(S(=O)(=O)C2CC2)cc1 [Example 62-5]
11,6.57,Cn1ccc(CO/N=C(/C(=O)Nc2ncc(F)s2)c2ccc(S(=O)(=O)C3CC3)cc2)n1 [Example 62-10]
12,6.41,O=C(Nc1ncc(F)s1)/C(=N/OCCCO)c1ccc(S(=O)(=O)C2CC2)cc1 [Example 67-2]
13,6.59,O=C(Nc1ncc(F)s1)/C(=N/O[C@@H]1CCOC1)c1ccc(S(=O)(=O)N2CCCOCC2)cc1 [Example 82-22]
14,6.22,O=C(Nc1ncc(F)s1)/C(=N/O[C@@H]1CCOC1)c1ccc(S(=O)(=O)NCCF)cc1 [Example 82-78]
15,6.39,Cn1ccnc1CS(=O)(=O)c1ccc(/C(=N\O[C@@H]2CCOC2)C(=O)Nc2ncc(F)s2)cc1 [Example 84-12]
16,6.28,CS(=O)(=O)c1ccc(/C(=N\OC2CCCC2)C(=O)Nc2ncc(C(N)=O)s2)cc1 [Example 91-8]

row,pEC50,Structure (SMILES)
1,6.29,O=C(Nc1nccs1)/C(=N/OCc1ccccn1)c1ccc(S(=O)(=O)C2CC2)cc1 [Example 94-6]
2,6.08,COCCCS(=O)(=O)c1ccc(/C(=N\O[C@@H]2CCOC2)C(=O)Nc2ncc(COC)s2)cc1 [Example 98-1]
3,6.64,COCCCS(=O)(=O)c1ccc(/C(=N\O[C@@H]2CCOC2)C(=O)Nc2nc3ccc(OCCO)nc3s2)cc1 [Example 98-7]
4,6.52,C[C@@H](CO)O/N=C(/C(=O)Nc1ncc(Cl)s1)c1ccc(S(=O)(=O)C2CC2)cc1 [Example 104-2]
5,6.24,Cc1nsc(NC(=O)/C(=N/O[C@@H]2CC[C@@H](O)C2)c2ccc(S(=O)(=O)C3CC3)cc2)n1 [Example 116]
6,6.27,COc1cnc(NC(=O)/C(=N/O[C@@H]2CC[C@@H](OC)C2)c2ccc(S(=O)(=O)C3CC3)cc2)cn1 [Example 139-41]
7,6.46,CCN(CCO)S(=O)(=O)c1ccc(/C(=N\O[C@@H]2CCOC2)C(=O)Nc2cnc(C3CC3)cn2)cc1 [Example 139-94]
8,6.12,COCCN(C)S(=O)(=O)c1ccc(/C(=N\O[C@@H]2CCOC2)C(=O)Nc2ncc(CN3CCN(C)CC3)s2)cc1 [Example 139-125]
9,6.74,COCCCS(=O)(=O)c1ccc(/C(=N\OCc2ncccn2)C(=O)Nc2nc3ccc(OC)nc3s2)cc1 [Example 139-134]
10,6.28,COCCCS(=O)(=O)c1ccc(/C(=N\OC2CCCC2)C(=O)Nc2ccc(C(N)=O)cn2)cc1 [Example 139-159]
11,6.28,COCCCS(=O)(=O)c1ccc(/C(=N\O[C@@H]2CC[C@@H](O)C2)C(=O)Nc2ncc(C)s2)cc1 [Example 139-182]
12,6.24,COCCCS(=O)(=O)c1ccc(/C(=N\O[C@@H]2CCOC2)C(=O)Nc2nc3ccc(OCCO)cc3s2)cc1 [Example 139-214]
13,6.89,CNc1ccc2nc(NC(=O)/C(=N/O[C@@H]3CCOC3)c3ccc(S(=O)(=O)CCCOC)cc3)sc2n1 [Example 139-221]
14,6.22,CC(=O)N1CCN(Cc2cnc(NC(=O)/C(=N/O[C@@H]3CCOC3)c3ccc(S(=O)(=O)[C@H]4CCOC4)cc3)s2)C[C@H]1C [Example 139-237]
15,6.34,CNCCOc1ccc2nc(NC(=O)/C(=N/O[C@@H]3CCOC3)c3ccc(S(=O)(=O)NCCO)cc3)sc2n1 [Example 139-244]
